Measured values taken from ChEMBL document CHEMBL1201862, “PubChem BioAssay data set” (2004).
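Assay format: 96-well plates, 48-hour exposure. GI50 is the concentration that inhibits growth by half.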 Active and inactive are the calls of the source. No stated cut-off is given here; in the data, active = GI50 up to about 1.1 µM and inactive = higher.

Legend:
Assay in all cases: growth of human tumour cells (NCI), 48 h
RXF 393 = tested on: RXF 393
NCI/ADR-RES = tested on: NCI/ADR-RES
RPMI-8226 = tested on: RPMI-8226
HL-60 = tested on: HL-60
Hs-578T = tested on: Hs-578T
SK-MEL-28 = tested on: SK-MEL-28
MDA-N = tested on: MDA-N
SK-MEL-5 = tested on: SK-MEL-5
HOP-92 = tested on: HOP-92
BT-549 = tested on: BT-549
SK-OV-3 = tested on: SK-OV-3
K562 = tested on: K562
M14 = tested on: M14
CAKI-1 = tested on: CAKI-1
SNB-19 = tested on: SNB-19
NCI-H226 = tested on: NCI-H226
SN12C = tested on: SN12C
UACC-257 = tested on: UACC-257
NCI-H23 = tested on: NCI-H23

Measured: GI50

Cc1nc(C)c(N2CCN(C(=O)O)CC2)c(O)n1
inactive: RXF 393 > 100 µM | NCI/ADR-RES > 100 µM | RPMI-8226 > 100 µM | HL-60 > 100 µM | Hs-578T > 100 µM | SK-MEL-28 > 100 µM | MDA-N > 100 µM | SK-MEL-5 > 100 µM | HOP-92 > 100 µM | BT-549 > 100 µM | SK-OV-3 > 100 µM | K562 > 100 µM | M14 > 100 µM | CAKI-1 1.39 µM | SNB-19 > 100 µM | NCI-H226 > 100 µM | SN12C > 100 µM | UACC-257 > 100 µM | NCI-H23 > 100 µM

CC(C)(C)OCC1NC(=O)[C@@H]2Cc3c([nH]c4ccccc34)C(c3ccccc3)N2C1=O (some centres undefined)
inactive: RXF 393 > 50 µM | NCI/ADR-RES > 50 µM | RPMI-8226 > 21.6 µM | HL-60 > 26.2 µM | Hs-578T > 50 µM | SK-MEL-28 > 50 µM | MDA-N > 50 µM | SK-MEL-5 > 50 µM | HOP-92 > 50 µM | BT-549 > 50 µM | SK-OV-3 > 50 µM | K562 > 30.1 µM | M14 > 50 µM | CAKI-1 > 50 µM | SNB-19 > 50 µM | NCI-H226 > 27.4 µM | SN12C > 50 µM | UACC-257 > 50 µM | NCI-H23 > 50 µM

CCOP(=O)(OCC)/C(C#N)=C/c1cnc(-c2ccccc2)[nH]1
inactive: RXF 393 > 100 µM | NCI/ADR-RES > 100 µM | RPMI-8226 > 100 µM | HL-60 > 100 µM | Hs-578T > 100 µM | SK-MEL-28 > 100 µM | MDA-N > 100 µM | SK-MEL-5 82.8 µM | HOP-92 > 100 µM | BT-549 > 100 µM | SK-OV-3 > 100 µM | K562 > 100 µM | M14 > 100 µM | CAKI-1 > 100 µM | SNB-19 > 100 µM | NCI-H226 > 100 µM | SN12C > 100 µM | UACC-257 > 100 µM | NCI-H23 79.6 µM

COc1ccc(C2SC(C)C(=O)N2c2nc(-c3nc(-c4ccc(Cl)cc4)cs3)cs2)cc1 (centres undefined)
inactive: RXF 393 > 100 µM | NCI/ADR-RES > 100 µM | RPMI-8226 > 100 µM | HL-60 94.4 µM | Hs-578T > 100 µM | SK-MEL-28 > 10 µM | MDA-N > 100 µM | SK-MEL-5 > 100 µM | HOP-92 > 100 µM | BT-549 > 100 µM | SK-OV-3 > 100 µM | K562 > 100 µM | M14 > 100 µM | CAKI-1 > 100 µM | SNB-19 > 100 µM | NCI-H226 > 100 µM | SN12C > 100 µM | UACC-257 > 100 µM | NCI-H23 > 100 µM

Cc1c(C)c2c(c(N)c1C#N)C(=O)N(Nc1ccccc1)C2=O
inactive: RXF 393 20 µM | NCI/ADR-RES 52.4 µM | RPMI-8226 > 100 µM | HL-60 26.7 µM | Hs-578T 46.7 µM | SK-MEL-28 > 100 µM | MDA-N > 100 µM | SK-MEL-5 > 100 µM | HOP-92 28.5 µM | BT-549 > 100 µM | K562 > 100 µM | M14 > 100 µM | CAKI-1 > 100 µM | SNB-19 39.1 µM | NCI-H226 61.2 µM | SN12C > 100 µM | UACC-257 81.8 µM

Nc1cc([N+](=O)[O-])ccc1C(=O)N1CCC[C@H]1CO
inactive: RXF 393 > 100 µM | NCI/ADR-RES > 100 µM | RPMI-8226 > 100 µM | HL-60 > 100 µM | Hs-578T 64.1 µM | SK-MEL-28 > 100 µM | MDA-N > 100 µM | HOP-92 > 100 µM | BT-549 > 100 µM | SK-OV-3 > 100 µM | K562 > 100 µM | CAKI-1 > 100 µM | SNB-19 > 100 µM | NCI-H226 > 100 µM | SN12C > 100 µM | UACC-257 > 100 µM | NCI-H23 > 100 µM

CCN(CC)CCC(=O)c1ccc(C)cc1
inactive: RXF 393 17 µM | NCI/ADR-RES 25.5 µM | RPMI-8226 2.62 µM | HL-60 24.5 µM | Hs-578T 61.5 µM | SK-MEL-28 16.3 µM | MDA-N 20.7 µM | SK-MEL-5 13.1 µM | HOP-92 18.2 µM | BT-549 22.4 µM | SK-OV-3 > 100 µM | K562 14.9 µM | M14 19.1 µM | SNB-19 > 100 µM | NCI-H226 28.6 µM | SN12C 36.9 µM | UACC-257 17.2 µM | NCI-H23 21.3 µM

NCCSC(c1ccccc1)c1ccccc1
inactive: RXF 393 17.7 µM | NCI/ADR-RES 31.3 µM | RPMI-8226 16 µM | Hs-578T 24.2 µM | SK-MEL-28 18.6 µM | MDA-N 18.7 µM | SK-MEL-5 16.7 µM | HOP-92 10.6 µM | BT-549 43.8 µM | SK-OV-3 22.5 µM | M14 14.7 µM | CAKI-1 24.9 µM | SNB-19 51.9 µM | NCI-H226 31.2 µM | SN12C 35.5 µM | UACC-257 16.3 µM | NCI-H23 37.2 µM
active: HL-60 0.314 µM

N#Cc1cc(-c2nc3c(F)cccc3s2)ccc1N
inactive: RXF 393 > 100 µM | NCI/ADR-RES > 100 µM | RPMI-8226 > 100 µM | HL-60 > 100 µM | Hs-578T > 100 µM | MDA-N 47.8 µM | SK-MEL-5 56.4 µM | HOP-92 3.52 µM | BT-549 > 100 µM | SK-OV-3 > 100 µM | K562 > 100 µM | M14 > 100 µM | CAKI-1 46 µM | SNB-19 > 100 µM | NCI-H226 > 100 µM | SN12C > 100 µM | UACC-257 > 100 µM | NCI-H23 > 100 µM

CCC(NC1=NCCO1)c1cccs1 (centres undefined)
inactive: RXF 393 19 µM | NCI/ADR-RES 43.1 µM | RPMI-8226 25.1 µM | HL-60 18.6 µM | Hs-578T 11.2 µM | SK-MEL-28 15.6 µM | MDA-N 14.6 µM | SK-MEL-5 16.8 µM | HOP-92 17.4 µM | BT-549 20.1 µM | SK-OV-3 13.8 µM | K562 5.55 µM | M14 19 µM | CAKI-1 17.2 µM | SNB-19 16.3 µM | NCI-H226 20.3 µM | UACC-257 18 µM | NCI-H23 16.9 µM

CC(=O)Nc1ncc2c(n1)-c1ccccc1OC2
inactive: RXF 393 > 100 µM | NCI/ADR-RES > 100 µM | RPMI-8226 > 100 µM | HL-60 > 100 µM | Hs-578T 19.5 µM | MDA-N > 100 µM | SK-MEL-5 > 100 µM | HOP-92 > 100 µM | BT-549 > 100 µM | SK-OV-3 > 100 µM | M14 > 100 µM | CAKI-1 > 100 µM | SNB-19 > 100 µM | NCI-H226 > 100 µM | SN12C > 100 µM | UACC-257 > 100 µM | NCI-H23 > 100 µM

O=C(/C=C/c1ccccc1)/C=N/N1C(=S)N(c2ccccc2)C(=N\c2ccccc2)/C1=N/c1ccccc1
inactive: RXF 393 38.8 µM | NCI/ADR-RES > 100 µM | RPMI-8226 > 100 µM | Hs-578T > 100 µM | SK-MEL-28 > 100 µM | MDA-N 82.4 µM | SK-MEL-5 > 100 µM | HOP-92 > 100 µM | BT-549 > 100 µM | SK-OV-3 > 100 µM | K562 > 100 µM | M14 > 100 µM | CAKI-1 > 100 µM | SNB-19 > 100 µM | NCI-H226 > 100 µM | SN12C > 100 µM | UACC-257 > 100 µM | NCI-H23 > 100 µM

N#C[BH2-][n+]1ccc(C(=O)NNCc2ccccc2)cc1
inactive: RXF 393 > 100 µM | NCI/ADR-RES > 100 µM | RPMI-8226 > 100 µM | HL-60 > 100 µM | Hs-578T > 100 µM | SK-MEL-28 > 100 µM | MDA-N > 100 µM | SK-MEL-5 > 100 µM | HOP-92 > 100 µM | BT-549 > 100 µM | K562 > 100 µM | M14 > 100 µM | CAKI-1 > 100 µM | SNB-19 > 100 µM | NCI-H226 > 100 µM | SN12C > 100 µM | UACC-257 > 100 µM

CN(C)c1ccc(/C=C2\N=C(N/N=C/c3ccccc3)NC2=O)cc1
inactive: RXF 393 20.2 µM | NCI/ADR-RES 29.1 µM | RPMI-8226 28.8 µM | HL-60 > 100 µM | Hs-578T 43 µM | SK-MEL-28 > 100 µM | MDA-N 33.4 µM | SK-MEL-5 41.1 µM | HOP-92 26.4 µM | BT-549 > 100 µM | SK-OV-3 > 100 µM | M14 89.7 µM | CAKI-1 > 100 µM | SNB-19 > 100 µM | NCI-H226 > 100 µM | SN12C > 100 µM | UACC-257 > 100 µM | NCI-H23 50.6 µM

C(=N\c1ccc(-c2nc3ccccc3[nH]2)cc1)/c1ccco1
inactive: RXF 393 73.8 µM | NCI/ADR-RES 84.9 µM | RPMI-8226 34.8 µM | HL-60 24.3 µM | Hs-578T > 100 µM | SK-MEL-28 > 100 µM | MDA-N 48.1 µM | SK-MEL-5 25.5 µM | HOP-92 44.1 µM | BT-549 > 100 µM | K562 37.6 µM | M14 > 100 µM | CAKI-1 > 100 µM | NCI-H226 > 100 µM | SN12C > 100 µM | UACC-257 > 100 µM | NCI-H23 82.6 µM
